One assay has as its system mouse locomotor activity. Kind of assay: Reduction of mouse locomotor activity (hypolocomotion). It is filed as in vivo, mouse (male, CF-1). The note with it: 20 min, sc, horizontal activity counts collected 10 to 20 minutes after dosing. How it is done: The antipsychotic activity of the compounds of the invention was further established by a determination of the compounds' ability to reduce mouse locomotor activity according to the method of Martin and Bendensky, J. Pharmacol. Exp. Therap. 229: 706-711, 1984, in which mice (male, CF-1, Charles River, 20-30 g) were injected with vehicle or various doses of each drug and locomotor activity was measured for 30 minutes using automated infrared activity monitors (Omnitech-8×8 inch open field) located in a darkened room. ED50 's were calculated from the horizontal activity counts collected from 10 to 20 minutes after dosing using a nonlinear regression analysis with inverse prediction.
Turning to `Cc1ccc(CNC[C@H]2COc3ccc4c(c3O2)CC(=O)N4)cc1` [Example 7], the median effective dose (ED50) is 0.005 mg/kg.
Consider `COc1ccc(CNC[C@H]2COc3ccc4c(c3O2)CC(=O)N4)cc1` [Example 17, 2-[(4-Methoxy-benzylamino)-methyl]-2,3,8,9-tetrahydro-7H-1,4-dioxino[2,3-e]indol-8-one], for which the ED50 worked out at 0.027 mg/kg.
For `O=C1Cc2c(ccc3c2O[C@@H](CNCC24CC5CC(CC(C5)C2)C4)CO3)N1` [Example 14], the ED50 worked out at 0.008 mg/kg.
Still for that read-out and setting: next, `CN(C)c1cccc(OCCCNC[C@H]2COc3ccc4c(c3O2)CC(=O)N4)c1` [Example 11]: 0.0138 mg/kg; `O=C1Cc2c(ccc3c2O[C@@H](CNCc2cccs2)CO3)N1` [Example 12, 2-{[(Thionphen-2-ylmethyl)-amino]-methyl}-2,3,8,9-tetrahydro-7H-1,4-dioxino[2,3-e]indol-8-one]: 0.0005 mg/kg.
On the same count and under the same terms, for `O=C1Cc2c(ccc3c2O[C@H](CNCc2ccccc2)CO3)N1` [Example 15, 2-(Benzylamino-methyl)-2,3,8,9-tetrahydro-7H-4-dioxino[2,3-e]indol-8-one] the value was 0.09 mg/kg.

For the next assay, the target named is T1, dopamine D2 receptor (Rattus norvegicus, UniProt P61169).
T1 construct: homogenized rat striatal brain tissue; from tissue; host or cells: rat striatum (homogenate)
T1 sequence (P61169 whole entry): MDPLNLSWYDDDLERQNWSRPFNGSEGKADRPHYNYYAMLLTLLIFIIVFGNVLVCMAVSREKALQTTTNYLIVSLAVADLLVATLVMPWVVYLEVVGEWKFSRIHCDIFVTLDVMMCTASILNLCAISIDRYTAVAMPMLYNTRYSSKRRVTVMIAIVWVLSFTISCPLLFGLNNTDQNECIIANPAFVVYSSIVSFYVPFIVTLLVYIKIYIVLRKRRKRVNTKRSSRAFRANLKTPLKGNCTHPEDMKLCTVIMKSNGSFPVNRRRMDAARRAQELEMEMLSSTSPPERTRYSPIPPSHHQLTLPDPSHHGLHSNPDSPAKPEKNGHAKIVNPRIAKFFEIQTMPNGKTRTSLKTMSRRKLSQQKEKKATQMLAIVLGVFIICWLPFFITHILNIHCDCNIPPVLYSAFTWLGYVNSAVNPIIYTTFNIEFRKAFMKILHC
Kind of assay: Affinity for the dopamine D2 receptor (3H-quinpirole, rat striatal brain tissue homogenate). The note with it: homogenized rat striatal brain tissue. Format: binding. How it is done: Affinity for the dopamine D2 receptor was established by a modification of the standard experimental test procedure of Seemen and Schaus, European Journal of Pharmacology 203: 105-109, 1991, wherein homogenized rat striatal brain tissue is incubated with ^3 H-quinpirole and various concentrations of test compound, filtered and washed and counted in a Betaplate scintillation counter.
As to `Cc1ccc(CNC[C@H]2COc3ccc4c(c3O2)CC(=O)N4)cc1` [Example 7], half-maximal inhibition (IC50) required 0.34 nM.
The compound `O=C1Cc2c(c(Cl)cc3c2O[C@@H](CNCc2ccc(F)cc2)CO3)N1` [Example 46, 6-Chloro-2-[(4-fluoro-benzylaimino)-methyl]-2,3,8,9-tetrahydro-7H-1,4-dioxino[2,3-e_]indol-8-one] showed an IC50 of 1 nM.
`O=C1Cc2c(c(F)cc3c2O[C@@H](CNCc2ccc(Cl)cc2)CO3)N1` [Example 40, 2-[(4-Chloro-benzylamino)-methyl]-6-fluoro-2,3,8,9-tetrahydro-7H-1,4-dioxino[2,3-e]indol-8-one]: half-maximal inhibition (IC50) required 0.53 nM.
For `O=C1Cc2c(ccc3c2O[C@@H](CNCCCO)CO3)N1` [Example 5, 2-[(3-Hydroxy-propylamino)-methyl]-2,3,8,9-tetrahydro-7H-1,4-dioxino[2,3-e]indol-8-one], the IC50 is 1.42 nM. Compared with the last compound, the IC50 is about 2.7-fold higher.
In turn, `O=C1Cc2c(c(F)cc3c2O[C@@H](CNCCCCc2ccccc2)CO3)N1` [Example 42, 6-Fluoro-2-[(4-phenyl-butylamino)-methyl]-2,3,8,9-tetrahydro-7H-1,4-dioxino[2,3-e]indol-8-one] came in with an IC50 of 0.67 nM.
On the same count and under the same terms, for `CCCCCNC[C@H]1COc2ccc3c(c2O1)CC(=O)N3` [Example 16, 2-(Pentylaminomethyl)-2,3,8,9-tetrahydro-7H-1,4-dioxino[2,3-e]indol-8-one] the value was 0.45 nM; for `O=C1Nc2ccc3c(c2C1=Cc1ccccc1)O[C@@H](CNCc1ccccc1)CO3` [Example 2, 2-(Benzylamino-methyl)-1-benzylidene-2,3,8,9-tetrahydro-7H-1,4-dioxino[2,3-e]indol-8-one], 2.8 nM; for `Cc1ccc(CNC[C@H]2COc3cc(F)c4c(c3O2)CC(=O)N4)cc1` [Example 36, 6-Fluoro-2-[(4-methyl-benzylamino)-methyl]-2,3,8,9-tetrahydro-7H-1,4-dioxino[2,3-e]indol-8-one], 0.35 nM.
Compound `CC(=O)Nc1cccc(OCCCNC[C@H]2COc3ccc4c(c3O2)CC(=O)N4)c1` [Example 23, N-(3-{3-[(8-Oxo-2,3,8,9-tetrahydro-7H-1,4-dioxinor[2,3-e]indol-2-ylmethyl)-amino]-propoxy}-phenyl)-acetamide] had an IC50 of 0.89 nM.
Consider `O=C1Nc2ccc3c(c2C1=O)O[C@@H](CNCc1ccccc1)CO3` [Example 26], for which half-maximal inhibition (IC50) required 0.52 nM. Against the preceding compound, the IC50 is about 1.7-fold lower.
For the compound `O=C1Cc2c(ccc3c2O[C@@H](CNCc2ccc(C(F)(F)F)cc2)CO3)N1` [Example 19, 2-(4-Trifluoromethyl-benzylamino-methyl)-2,3,8,9-tetrahydro-7H-1,4-dioxino [2,3-e]indol-8-one], the IC50 amounted to 0.34 nM. Compared with the last compound, the IC50 is about 1.5-fold lower.
`O=C1Cc2c(ccc3c2O[C@@H](CNCc2ccc(F)cc2)CO3)N1` [Example 20, 2-(4-Fluoro-benzylamino)-methyl-2,3,8,9-tetrahydro-7H-1,4-dioxino[2,3-e]-indol-8-one] displayed an IC50 of 0.29 nM.
On the same count and under the same terms, next, `O=C1Cc2c(ccc3c2O[C@@H](CNCc2cccc(C(F)(F)F)c2)CO3)N1` [Example 25, 2-[(3-Trifluoromethyl-benzylamino)-methyl]-2,3,8,9-tetrahydro-7H-1,4-dioxino [2,3-e]indol-8-one]: 1.04 nM; `O=C1Cc2c(ccc3c2O[C@@H](CNCCc2c[nH]c4ccccc24)CO3)N1` [Example 4]: 1.79 nM.
The compound `COc1ccc(CNC[C@H]2COc3ccc4c(c3O2)CC(=O)N4)cc1` [Example 17, 2-[(4-Methoxy-benzylamino)-methyl]-2,3,8,9-tetrahydro-7H-1,4-dioxino[2,3-e]indol-8-one] showed an IC50 of 0.68 nM.
`O=C1Cc2c(ccc3c2O[C@@H](CNCCc2cccnc2)CO3)N1` [Example 10, 2-[(2-Pyridin-3yl-ethylamino)-methyl]-2,3,8,9-tetrahydro-7H-1,4-dioxino-[2,3-e]indol-8one] had an IC50 of 3.06 nM.
`O=C1Cc2c(ccc3c2O[C@@H](CNCC2CCCCC2)CO3)N1` [Example 9, 2-(Cyclohexylmethylamino-methyl)-2,3,8,9-tetrahydro-7H-1,4-dioxino[2,3-e]indol-8-one]: the IC50 was 0.37 nM.
In turn, `O=C1Cc2c(ccc3c2O[C@@H](CNCC24CC5CC(CC(C5)C2)C4)CO3)N1` [Example 14] displayed an IC50 of 0.43 nM. This IC50 and that of the compound before are within 1.5-fold of each other.
As to `Cc1ccc(C=C2C(=O)Nc3c(F)cc4c(c32)O[C@@H](CNCc2ccc(C)cc2)CO4)cc1` [Example 35, 6-Fluoro-2-[(4-methyl-benzylamino)-methyl]-9-(4-methyl-benzylidene)-2,3.8.9-tetrahydro-7H-1,4-dioxino[2,3-e]indol-8-one], the IC50 came to 52.1 nM.
For the compound `CN(C)c1cccc(OCCCNC[C@H]2COc3ccc4c(c3O2)CC(=O)N4)c1` [Example 11], the half-maximal inhibitory concentration (IC50) was found to be 1.3 nM. Compared with the last compound, the IC50 is about 40-fold lower.
`Cc1cc2c(c3c1NC(=O)C3)O[C@@H](CNCc1ccccc1)CO2` [Example 31, 2-(Benzylamino-methyl)-6-methyl-2,3,8,9-tetrahydro-7H-1,4-dioxino[2,3-e]indol-8-one] gave an IC50 of 1.3 nM.
`O=C1Cc2c(c(F)cc3c2O[C@@H](CNCC24CC5CC(CC(C5)C2)C4)CO3)N1` [Example 38, 2-{[(Adamantan-1-ylmethyl)-amino]-methyl}-6-fluoro-2,3,8,9-tetrahydro-7H-1,4-dioxino[2,3-e]indol-8-one]: the IC50 was found to be 1.08 nM.
As for `Cc1cc2c(c3c1NC(=O)C3)O[C@@H](CNCc1cccs1)CO2` [Example 29, 2-{[(Thiophene-2-ylmethyl)-amino]-methyl}-6-methyl-2,3,8,9-tetrahydro-7H-1,4-dioxino[2,3-e]indol-8-one], the IC50 was determined as 3.3 nM.
Still for that read-out and setting: next, `O=C1Cc2c(ccc3c2O[C@@H](CNCc2cccs2)CO3)N1` [Example 12, 2-{[(Thionphen-2-ylmethyl)-amino]-methyl}-2,3,8,9-tetrahydro-7H-1,4-dioxino[2,3-e]indol-8-one]: 0.51 nM; `O=C1Cc2c(c(F)cc3c2O[C@@H](CNCc2ccccc2)CO3)N1` [Example 33, 2-(Benzylamino-methyl)-6-fluoro-2,3,8,9-tetrahydro-7H-1,4-dioxino[2,3-e]indol-8-one]: 0.57 nM; `O=C1Cc2c(ccc3c2O[C@H](CNCc2ccccc2)CO3)N1` [Example 15, 2-(Benzylamino-methyl)-2,3,8,9-tetrahydro-7H-4-dioxino[2,3-e]indol-8-one]: 3.33 nM.
The compound `Cc1ccc(CNC[C@H]2COc3cc(Cl)c4c(c3O2)CC(=O)N4)cc1` [Example 44, 6-Chloro-2-[(4-methyl-benzylamino)-methyl]-2,3,8,9-tetrahydro-7H-1,4-dioxino[2,3-e]indol-8-one] had an IC50 of 1.43 nM. This IC50 lies about 2.3-fold lower than the previous one.
The same measure, in the same setting: next, `NC[C@H]1COc2ccc3c(c2O1)CC(=O)N3` [Example 8, 2-Aminomethyl-2,3,8,9-tetrahydro-7H-1,4-dioxino[2,3-e]indol-8-one]: 9.93 nM; `CN(C)c1cccc(OCCCNC[C@H]2COc3cc(F)c4c(c3O2)CC(=O)N4)c1` [Example 37, 2-{[3-(3-Dimethylamino-phenoxy)-propylamino]-methyl}-6-fluoro-2,3,8,9-tetrahydro-7H-1,4-dioxino[2,3-e]indol-8-one]: 0.51 nM; `O=C1Cc2c(c(F)cc3c2O[C@@H](CNCc2ccc(C(F)(F)F)cc2)CO3)N1` [Example 41, 6-Fluoro-2-[(4-trifluoromethyl-benzylamino)-methyl]-2,3,8,9-tetrahydro-7H-dioxino[2,3-e]indol-8-one]: 0.56 nM.
Regarding `O=C1Cc2c(c(F)cc3c2O[C@@H](CNCc2ccc(F)cc2)CO3)N1` [Example 34, 6-Fluoro-2-[(4-fluoro-benzylamino)-methyl]-2,3,8,9-tetrahydro-7H-1,4-dioxino[2,3-e]indol-8-one], the midpoint of inhibition, the IC50, lay at 0.56 nM.
For `O=C1Cc2c(c(Cl)cc3c2O[C@@H](CNCc2ccccc2)CO3)N1` [Example 45, 2-(Benzylamino)-methyl-6-chloro-2,3,8,9-tetrahydro-7H-1,4-dioxino[2,3-e]indol-8-one], the IC50 is 0.97 nM. Against the preceding compound, the IC50 is about 1.7-fold higher.
In turn, `O=C1Cc2c(c(Cl)cc3c2O[C@@H](CNCc2ccc(Cl)cc2)CO3)N1` [Example 43, 6-Chloro-2-[(4-chloro-benzylamino)-methyl]-2,3,8,9-tetrahydro-7H-1,4-dioxino[2,3-e]indol-8-one] gave an IC50 of 0.98 nM.
In turn, `O=C1CCc2c(ccc3c2O[C@@H](CNCc2ccccc2)CO3)N1` [Example 6, 2-(Benzylamino-methyl)-2,3,9,10-tetrahydro-7H-1,4-dioxino[2,3-f]quinolin-8-one] yielded an IC50 of 12.3 nM.
In turn, `O=C1Cc2c(ccc3c2O[C@@H](CNCCCCc2ccccc2)CO3)N1` [Example 21, 2-(4-Phenyl-butylamino)-methyl-2,3,8,9-tetrahydro-7H-1,4-dioxino[2,3-e]indol-8-one] returned an IC50 of 0.33 nM.
Compound `O=C1Cc2c(ccc3c2O[C@@H](CNCc2cccc4ccccc24)CO3)N1` [Example 18, 2-(Napthalen-1-yl-methylamino-methyl)-2,3,8,9-tetrahydro-7H-1,4-dioxono[2,3-e]indol-8-one] had an IC50 of 0.49 nM.
`O=C1Cc2c(ccc3c2O[C@@H](CNCCCOc2ccc4cccnc4c2)CO3)N1` [Example 13] yielded an IC50 of 1.39 nM.
In turn, `O=C1Nc2ccc3c(c2C1=Cc1ccc(F)cc1)O[C@@H](CNCc1ccc(F)cc1)CO3` [Example 22] yielded an IC50 of 17.7 nM.
With `Cc1cc2c(c3c1NC(=O)C3)O[C@@H](CNCc1ccc(F)cc1)CO2` [Example 32], 2.15 nM corresponded to half-maximal inhibition (IC50).

The values are drawn from patent US5756532A, “Aminomethyl-2 3 8 9-tetrahydro-7H-1 4-dioxino[2 3-E]-indol-8-ones and derivatives” (American Home Products Corporation, priority 1996, dated 1998).
